For 16 compounds, CATDS and potency estimated from few doses results are on record in PMC11062922 (Nature Chemical Biology, 2023).

One experiment addresses T1, ABL2 (Homo sapiens, UniProt P42684).
T1 construct: endogenous in cells
The experiment can be described thus: Kinobeads two-dose competition binding: ABL2. The note with it: sheet CATDS matrix 2; Gene Name ABL2.

The next experiment concerns the target ABL1 (Homo sapiens, UniProt P00519). The experiment can be described thus: Kinobeads two-dose competition binding: ABL1. The note with it: sheet CATDS matrix 2; Gene Name ABL1.
Another experiment concerns the target T2, ACOX1 (Homo sapiens, UniProt Q15067).
T2 construct: endogenous in cells
T2 sequence (Q15067 1-660): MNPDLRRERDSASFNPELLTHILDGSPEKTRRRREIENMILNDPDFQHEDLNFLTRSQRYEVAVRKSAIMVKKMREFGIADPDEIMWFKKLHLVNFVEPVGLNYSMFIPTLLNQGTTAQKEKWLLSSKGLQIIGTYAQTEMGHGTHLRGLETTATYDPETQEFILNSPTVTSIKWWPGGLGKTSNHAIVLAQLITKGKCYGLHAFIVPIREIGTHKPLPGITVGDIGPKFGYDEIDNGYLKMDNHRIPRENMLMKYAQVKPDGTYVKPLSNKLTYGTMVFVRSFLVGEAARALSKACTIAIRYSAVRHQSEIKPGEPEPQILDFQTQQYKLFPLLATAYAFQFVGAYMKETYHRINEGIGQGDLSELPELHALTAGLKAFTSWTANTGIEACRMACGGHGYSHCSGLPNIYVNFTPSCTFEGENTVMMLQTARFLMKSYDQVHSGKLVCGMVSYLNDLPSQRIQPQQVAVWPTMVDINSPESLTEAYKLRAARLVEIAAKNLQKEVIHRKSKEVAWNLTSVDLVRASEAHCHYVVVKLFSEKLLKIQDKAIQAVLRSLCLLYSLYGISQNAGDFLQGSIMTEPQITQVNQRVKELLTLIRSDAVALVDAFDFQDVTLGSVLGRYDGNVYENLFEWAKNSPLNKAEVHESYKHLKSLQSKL
The experiment can be described thus: Kinobeads two-dose competition binding: ACOX1.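 Also: competition of compounds with immobilized broad-spectrum kinase inhibitor beads in cell lysate at 100 and 1,000 nM, 45 min at 4 °C, bead-bound protein quantified by label-free MS versus DMSO.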 As to conditions: sheet CATDS matrix 2; Gene Name ACOX1.

For another experiment, the target named is T3, AAK1 (Homo sapiens, UniProt Q2M2I8).
T3 construct: to maximize the representation of endogenous proteins; endogenous in cells
The experiment can be described thus: Kinobeads two-dose competition binding: AAK1.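 As to all read-outs here: kinobeads competition pulldown from cell lysate, compound preincubated 45 min at 4 °C, bead-bound protein measured by label-free mass spectrometry against DMSO vehicle control.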 The note with it: for CATDS: sheet CATDS matrix 2, Gene Name AAK1; for potency estimated from few doses: sheet "Kinobeads Drugmatrix - all", unit inferred, same values below 1000 recur in sheet "nanomolar", read-out: Kinobeads Drugmatrix - all: apparent Kd, AAK1.

Another experiment addresses T4, ACAD11 (Homo sapiens, UniProt Q709F0).
T4 construct: endogenous in cells
T4 sequence (Q709F0 1-780): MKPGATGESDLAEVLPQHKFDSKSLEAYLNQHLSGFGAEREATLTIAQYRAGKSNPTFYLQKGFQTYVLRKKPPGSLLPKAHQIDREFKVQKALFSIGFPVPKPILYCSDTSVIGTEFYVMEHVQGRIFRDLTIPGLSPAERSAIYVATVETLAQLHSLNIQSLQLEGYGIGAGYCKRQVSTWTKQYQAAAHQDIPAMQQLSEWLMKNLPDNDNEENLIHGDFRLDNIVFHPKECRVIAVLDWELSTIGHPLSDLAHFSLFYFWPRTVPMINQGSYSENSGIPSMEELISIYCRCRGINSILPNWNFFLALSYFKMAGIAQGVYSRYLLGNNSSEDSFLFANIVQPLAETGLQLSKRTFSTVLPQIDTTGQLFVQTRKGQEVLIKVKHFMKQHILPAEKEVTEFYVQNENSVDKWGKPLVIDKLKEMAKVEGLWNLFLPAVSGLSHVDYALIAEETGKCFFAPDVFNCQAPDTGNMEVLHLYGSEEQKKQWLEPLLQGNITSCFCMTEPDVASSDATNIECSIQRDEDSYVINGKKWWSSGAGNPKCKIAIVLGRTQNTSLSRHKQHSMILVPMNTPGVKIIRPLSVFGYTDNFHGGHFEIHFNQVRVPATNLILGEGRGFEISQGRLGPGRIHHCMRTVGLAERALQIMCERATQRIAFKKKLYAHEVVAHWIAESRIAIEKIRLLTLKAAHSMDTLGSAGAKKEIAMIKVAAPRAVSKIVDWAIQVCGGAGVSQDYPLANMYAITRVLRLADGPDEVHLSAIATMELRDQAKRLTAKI
The experiment can be described thus: Kinobeads two-dose competition binding: ACAD11. As to conditions: sheet CATDS matrix 2; Gene Name ACAD11.

The structures appear in SMILES notation. Where only a bound is given, the exact number is not on record here.

T3 sequence (Q2M2I8 whole entry): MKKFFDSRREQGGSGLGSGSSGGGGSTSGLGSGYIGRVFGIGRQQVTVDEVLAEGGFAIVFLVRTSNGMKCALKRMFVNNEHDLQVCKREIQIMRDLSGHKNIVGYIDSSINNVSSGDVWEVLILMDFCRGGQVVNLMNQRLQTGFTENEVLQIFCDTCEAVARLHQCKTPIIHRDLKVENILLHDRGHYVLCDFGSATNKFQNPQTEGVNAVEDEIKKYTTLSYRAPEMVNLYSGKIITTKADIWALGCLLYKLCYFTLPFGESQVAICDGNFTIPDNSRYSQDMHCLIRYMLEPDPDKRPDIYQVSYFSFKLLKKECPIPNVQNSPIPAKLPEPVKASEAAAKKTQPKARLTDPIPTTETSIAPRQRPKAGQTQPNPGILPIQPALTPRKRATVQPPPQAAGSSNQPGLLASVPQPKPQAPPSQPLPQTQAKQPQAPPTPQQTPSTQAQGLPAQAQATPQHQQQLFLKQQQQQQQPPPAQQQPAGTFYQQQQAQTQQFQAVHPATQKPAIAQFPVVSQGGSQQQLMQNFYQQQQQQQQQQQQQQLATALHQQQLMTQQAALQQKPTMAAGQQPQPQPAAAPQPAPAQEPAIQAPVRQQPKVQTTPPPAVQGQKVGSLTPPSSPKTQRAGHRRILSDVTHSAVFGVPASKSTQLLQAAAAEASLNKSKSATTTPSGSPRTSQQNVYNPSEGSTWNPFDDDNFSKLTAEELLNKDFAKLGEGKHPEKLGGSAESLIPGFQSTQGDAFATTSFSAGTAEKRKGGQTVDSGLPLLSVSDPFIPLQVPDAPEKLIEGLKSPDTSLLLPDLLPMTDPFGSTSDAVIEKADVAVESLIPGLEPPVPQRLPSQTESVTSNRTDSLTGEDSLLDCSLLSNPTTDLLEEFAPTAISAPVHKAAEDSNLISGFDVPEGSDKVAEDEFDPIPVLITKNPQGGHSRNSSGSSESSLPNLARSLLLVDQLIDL
Chain of ABL1 (P00519 28-1130 limits assumed): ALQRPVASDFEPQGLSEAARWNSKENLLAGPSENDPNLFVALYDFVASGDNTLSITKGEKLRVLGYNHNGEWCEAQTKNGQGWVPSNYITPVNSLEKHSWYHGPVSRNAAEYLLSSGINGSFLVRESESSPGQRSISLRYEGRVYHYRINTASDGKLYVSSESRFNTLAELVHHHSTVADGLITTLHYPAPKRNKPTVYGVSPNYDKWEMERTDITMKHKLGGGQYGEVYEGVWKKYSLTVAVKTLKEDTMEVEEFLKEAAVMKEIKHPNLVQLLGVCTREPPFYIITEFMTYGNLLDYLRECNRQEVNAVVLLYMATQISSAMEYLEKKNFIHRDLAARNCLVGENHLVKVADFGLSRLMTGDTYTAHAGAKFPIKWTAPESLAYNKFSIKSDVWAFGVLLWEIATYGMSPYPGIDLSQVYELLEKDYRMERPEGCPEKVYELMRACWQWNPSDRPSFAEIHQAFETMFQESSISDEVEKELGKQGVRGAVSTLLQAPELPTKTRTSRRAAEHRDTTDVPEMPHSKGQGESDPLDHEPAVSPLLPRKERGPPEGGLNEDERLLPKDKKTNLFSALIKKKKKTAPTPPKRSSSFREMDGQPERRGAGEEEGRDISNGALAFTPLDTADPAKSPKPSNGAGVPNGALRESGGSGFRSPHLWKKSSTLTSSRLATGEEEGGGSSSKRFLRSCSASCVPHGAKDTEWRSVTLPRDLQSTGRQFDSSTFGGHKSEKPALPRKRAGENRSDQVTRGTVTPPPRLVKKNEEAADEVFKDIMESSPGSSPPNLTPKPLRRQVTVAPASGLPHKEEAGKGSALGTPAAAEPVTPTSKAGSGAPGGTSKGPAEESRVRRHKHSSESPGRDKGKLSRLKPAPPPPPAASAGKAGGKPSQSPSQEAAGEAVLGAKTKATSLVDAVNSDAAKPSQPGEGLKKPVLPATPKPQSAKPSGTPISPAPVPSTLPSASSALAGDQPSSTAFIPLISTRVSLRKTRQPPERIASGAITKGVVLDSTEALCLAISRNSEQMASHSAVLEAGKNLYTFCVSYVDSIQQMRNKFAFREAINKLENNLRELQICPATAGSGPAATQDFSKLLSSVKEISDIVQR
T1 sequence (P42684 whole entry): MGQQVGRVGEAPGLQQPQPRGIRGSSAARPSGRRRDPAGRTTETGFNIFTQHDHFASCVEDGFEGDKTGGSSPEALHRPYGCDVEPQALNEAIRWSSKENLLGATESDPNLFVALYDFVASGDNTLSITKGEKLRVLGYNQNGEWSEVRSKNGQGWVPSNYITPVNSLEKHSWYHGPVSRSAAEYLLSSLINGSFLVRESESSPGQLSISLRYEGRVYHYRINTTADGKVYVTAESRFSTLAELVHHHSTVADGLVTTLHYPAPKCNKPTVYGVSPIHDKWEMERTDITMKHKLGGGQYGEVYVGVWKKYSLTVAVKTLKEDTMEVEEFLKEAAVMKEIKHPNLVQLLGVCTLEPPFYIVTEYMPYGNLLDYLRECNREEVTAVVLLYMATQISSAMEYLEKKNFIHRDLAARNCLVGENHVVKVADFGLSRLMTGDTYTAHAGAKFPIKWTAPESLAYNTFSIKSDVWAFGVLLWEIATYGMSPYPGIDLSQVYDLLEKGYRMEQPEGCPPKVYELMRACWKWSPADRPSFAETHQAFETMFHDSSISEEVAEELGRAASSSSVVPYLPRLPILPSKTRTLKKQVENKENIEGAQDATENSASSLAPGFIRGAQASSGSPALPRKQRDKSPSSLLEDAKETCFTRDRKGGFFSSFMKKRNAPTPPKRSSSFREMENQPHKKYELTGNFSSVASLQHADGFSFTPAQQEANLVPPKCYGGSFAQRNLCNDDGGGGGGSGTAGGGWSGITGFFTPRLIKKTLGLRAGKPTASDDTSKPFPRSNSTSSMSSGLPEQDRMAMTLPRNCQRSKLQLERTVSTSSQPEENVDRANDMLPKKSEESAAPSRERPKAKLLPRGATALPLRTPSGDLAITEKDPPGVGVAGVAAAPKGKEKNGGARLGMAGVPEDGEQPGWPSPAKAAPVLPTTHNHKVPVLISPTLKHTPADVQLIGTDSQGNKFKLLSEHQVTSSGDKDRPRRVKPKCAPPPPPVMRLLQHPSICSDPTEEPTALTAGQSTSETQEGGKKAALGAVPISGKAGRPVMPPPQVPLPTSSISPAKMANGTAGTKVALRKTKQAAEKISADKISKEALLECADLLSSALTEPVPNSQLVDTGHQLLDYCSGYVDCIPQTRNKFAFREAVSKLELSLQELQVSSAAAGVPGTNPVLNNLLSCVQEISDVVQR

For `COc1ccc(Nc2nccc(N3CCC(NC(=O)C(C)c4ccc(Cl)cc4)C3)n2)cc1` (stereo not shown) [GSK1379735A], the CATDS on ABL2, at ABL1, on ACOX1, at AAK1 and at ACAD11 was 0 throughout.
Consider `NCC(NC(=O)c1cc(-c2ccnc3[nH]ccc23)cs1)c1ccccc1` (stereo not shown) [GSK1229959A], for which the CATDS on ABL2 is listed as 0; on ABL1, 0; at ACOX1, 0; at AAK1, 0.03638; on ACAD11, 0. Also, at AAK1, the potency estimated from few doses is 0.0796 µM.
Consider `CO[C@@H](C(=O)N1Cc2n[nH]c(NC(=O)c3ccc(N4CCN(C)CC4)cc3)c2C1)c1ccccc1` [Danusertib, reference compound], for which the CATDS on ABL2 came to 0.05811; on ACOX1 it was 0; at AAK1 it was 0; at ACAD11, 0.
For the compound `C[C@@H](Oc1cc(-c2cnn(C3CCNCC3)c2)cnc1N)c1c(Cl)ccc(F)c1Cl` [Crizotinib, reference compound], the CATDS at ABL2 came out at 0.04718; on ACOX1 it was 0; on AAK1 it was 0; on ACAD11, 0.
On to `O=c1[nH]ccc2nc(N[C@@H]3CCCNC3)nc(Nc3ccc(S(=O)(=O)N4CCOCC4)cc3)c12` [GSK2177277A], for which the CATDS at ABL2 is recorded as 0; at ABL1 it was 0; on ACOX1 it was 0; at AAK1 it was 0.01814. Further, the potency estimated from few doses on AAK1 was 0.0641 µM.
Turning to `C#Cc1cccc(Nc2ncnc3cc(OCCOC)c(OCCOC)cc23)c1` [Erlotinib, reference compound], the CATDS on ABL1 and on AAK1 was 0 in each case.
On to `COc1ccc(CNC(=O)NC2CCN(c3ccnc(Nc4cc(OC)c(OC)c(OC)c4)n3)C2)cc1` (stereo not shown) [GSK1379748A], for which the potency estimated from few doses on AAK1 was more than 1 µM.
As to `COc1cc2ncnc(Nc3ccc(F)c(Cl)c3)c2cc1OCCCN1CCOCC1` [Gefitinib, reference compound], the CATDS on AAK1 was found to be 0.
With `O=C(Nc1c[nH]nc1-c1nc2ccc(CN3CCOCC3)cc2[nH]1)NC1CC1` [AT-9283, reference compound], the CATDS on ABL2 is listed as 0; on ACOX1 it was 0; at AAK1, 0.0448; at ACAD11, 0.
On to `CC(C)(C)c1nc(-c2cccc(NS(=O)(=O)c3c(F)cccc3F)c2F)c(-c2ccnc(N)n2)s1` [Dabrafenib, reference compound], for which the CATDS on ABL2 is recorded as 0.02813; on ACOX1, 0; at AAK1 it was 0; on ACAD11, 0.
Regarding `CNc1nc(-c2ccc3c(N)n[nH]c3c2)cc(N2C[C@@H](C(=O)NC3CCCCC3)CC[C@H]2C)n1` [GSK2334470], the CATDS at ABL2, at ACOX1, on AAK1 and at ACAD11 was 0 throughout.
`COc1cccc(NC(=O)NC2CCN(c3ccnc(Nc4cc(OC)c(OC)c(OC)c4)n3)C2)c1` (stereo not shown) [GSK1379763A]: the potency estimated from few doses on AAK1 was more than 1 µM.
As for `CNC(=O)c1ccccc1Sc1ccc2c(/C=C/c3ccccn3)n[nH]c2c1` [Axitinib, reference compound], the CATDS on ABL2, on ACOX1, on AAK1 and at ACAD11 was 0 throughout.
For `Cc1nc(Nc2ncc(C(=O)Nc3c(C)cccc3Cl)s2)cc(N2CCN(CCO)CC2)n1` [Dasatinib, reference compound], the CATDS worked out at 0.1826 on ABL2, 0 at ACOX1, 0 on AAK1 and 0 on ACAD11.
For the compound `COc1cc2ncnc(Nc3cccc(Br)c3)c2cc1OC` [GI230329A], the CATDS on ABL2, at ACOX1, on AAK1 and at ACAD11 was 0 in each case.
As for `COc1cc(Nc2c(C#N)cnc3cc(OCCCN4CCN(C)CC4)c(OC)cc23)c(Cl)cc1Cl` [Bosutinib, reference compound], the CATDS on ACOX1 and on ACAD11 was 0 each time.
